Usually IC50 stands for the concentration at which inhibition is half-maximal. High values mean lower potency, low ones higher potency.

Structures are written as SMILES.

Consider 17 compounds from US20060235035A1, “Novel methoxybenzamibe compounds for use in mch receptor related disorders” (7TM Pharma A/S, priority 2002, published 2006).

For experiment [1], the target named is T1, human MCH-1 receptor (Homo sapiens, UniProt Q99705).
T1 construct: expressed in transfected cells; host or cells: transiently transfected COS-7 cells or stably transfected CHO cells (pcDNA3.1)
The experiment in a line: Radioligand binding assay ([125I]-MCH competition, whole cells). The following applies: competition with [125I]-MCH; COS-7 or CHO cells expressing human MCH-1 receptor. Here is the method: Transfections and Tissue Culture—The cDNA encoding the human MCH-1 receptor was cloned from a human brain cDNA library and cloned into the eukaryotic expression vector pcDNA3.1 (Invitrogen). Assays were performed on transiently transfected COS-7 cells or stably transfected CHO (Chinese Hamster Ovary) cells, expressing the human MCH-1 receptor in pcDNA3.1. Stable MCH-1 receptor transfectants of CHO cells were obtained using 5 μg plasmid cDNA and a standard calcium phosphate transfection method (Johansen et al., 1990; Gether et al., 1992) with subsequent selection in 1 mg/ml G418 (Life Technology). Clones were screened by a MCH receptor radioligand binding assay (as described below). Stably transfected CHO cells were maintained in RPMI 1640 culture medium (Invitrogen), supplemented with 10% fetal calf serum (Invitrogen), 100 U/ml penicillin, 100 μg/ml streptomycin (Life Technology), and 500 μg/ml G418 (Life Technology). COS-7 cells were grown in Dulbecco's modified Eagle's medium (DMEM) 1885 (Invitrogen) supplemented with 10% fetal calf serum, 100 U/ml penicillin, 100 μg/ml streptomycin, and were transiently transfected by a standard calcium phosphate transfection method (Johansen et al., 1990; Gether et al., 1992) two days before assay.
Radioligand Binding Assay—Transiently transfected COS-7 cells or stably transfected CHO cells, expressing human MCH-1 receptor were seeded in multi-well culture plates one day before the assay. The number of cells per well was determined by the apparent expression efficiency of the cell line aiming at 5-10% binding of the added radioligand. Cells were assayed by competition binding for 3 hours at room temperature using […] [^125I]-MCH (Amersham Pharmacia Biotech) plus variable amounts of unlabeled ligand in 0.5 ml of a 25 mM Hepes buffer, pH 7.4, supplemented with 10 mM MgCl2, 5 mM MnCl2, 10 mM NaCl, 0.1% (w/v) bovine serum albumin (BSA), 100 μg/ml bacitracin. The assay was performed in duplicate. Nonspecific binding was determined as the binding in the presence of 1 μM MCH (Bachem). Binding data were analyzed and IC50 values determined by non-linear regression using the Prism software (GraphPad software, San Diego). Values of the dissociation and inhibition constants (Kd and Ki) were estimated from competition binding using the equations Kd=IC50−L and Ki=IC50/(1+L/Kd), respectively, where L is the concentration of radioligand.

Experiment [2] deals with T1, human MCH-1 receptor. Briefly: Phosphatidylinositol assay (IP3). The class given is cell-based. Conditions: phosphatidylinositol turnover stimulated by 10 nM MCH; COS-7 or CHO cells expressing human MCH-1 receptor. The method, then:
Transfections and Tissue Culture—The cDNA encoding the human MCH-1 receptor was cloned from a human brain cDNA library and cloned into the eukaryotic expression vector pcDNA3.1 (Invitrogen). Assays were performed on transiently transfected COS-7 cells or stably transfected CHO (Chinese Hamster Ovary) cells, expressing the human MCH-1 receptor in pcDNA3.1. […] Clones were screened by a MCH receptor radioligand binding assay (as described below).
Phosphatidylinositol assay—To assay phosphatidylinositol turnover, transiently transfected COS-7 cells or stably transfected CHO cells, expressing human MCH-1 receptor (2×10^5 cells/well) were incubated for 24 h with 5 μCi of [^3H]-myo-inositol (Amersham Pharmacia Biotech) in 0.5 ml inositol-free culture medium. Cells were washed twice in PI-buffer: 20 mM HEPES, pH 7.4, supplemented with 140 mM NaCl, 5 mM KCl, 1 mM MgSO4, 1 mM CaCl2, 10 mM glucose, 0.02% (w/v) bovine serum; and were incubated in 0.5 ml PI-buffer supplemented with 10 mM LiCl at 37° C. for 45 min. Phosphatidylinositol turnover was stimulated by submaximal concentrations of MCH, i.e. 10 nM in the presence of increasing amounts of ligand. The ligand was added 5 min. before adding the agonist (MCH). Cells were extracted with 10 mM ice-cold Formic acid, and the generated [^3H]-inositol phosphates were purified on Bio-Rad AG 1-X8 anion-exchange resin. Determinations were made in duplicate. PI data were analyzed and IC50 values determined by non-linear regression using the Prism software (GraphPad software, San Diego).

Another experiment concerns the target T2, hMCHreceptor (Homo sapiens, UniProt Q99705).
T2 construct: purchased Euroscreen ES-370-M; host or cells: CHO-K1 membranes
Briefly: Scintillation Proximity Assay (SPA), [125I]-MCH binding to CHO-K1 membranes. Conditions: CHO-K1 membranes expressing hMCH receptor. Here is the method:
Scintillation Proximity Assay (SPA)—Measurement of [^125I]-MCHbinding was performed in duplicates by incubating membranes and beads with tracer in the presences of various concentrations of test compounds (10^−8 to 10^−4 M) in DMSO (3 μl) at room temperature for two hours. Membranes and beads were pre-incubated for 20 min. The binding buffer contained 50 mM Tris (pH 7.4), 8 mM MgCl2, 12% glycerol, 0.1% (w/v) bovine serum albumin (BSA), and protease inhibitors (Complete protease inhibitor cocktail tablets, Roche). A final [^125I]-MCH(2000 Ci/mmol; Amersham Pharmacia Biotech) concentration of 75.000 cpm/well (33.8 nCi) was applied and PEI-treated WGA-coupled PVT SPA beads, type B from Amersham Pharmacia Biotech were used at a final concentration of 0.4 mg/well. Moreover, CHO-K1 membranes expressing the hMCHreceptor were purchased from Euroscreen (ES-370-M) and a final concentration of 2 μg/well were used. Binding data were analyzed and IC50 values determined by non-linear regression using the Prism software (GraphPad software, San Diego). Values of the inhibition constant (Ki) were estimated from competition binding using the equation Ki=IC50/([…]), where L and Kd are the concentration and affinity constant, respectively, of the radioligand.

T1 sequence (Q99705 whole entry): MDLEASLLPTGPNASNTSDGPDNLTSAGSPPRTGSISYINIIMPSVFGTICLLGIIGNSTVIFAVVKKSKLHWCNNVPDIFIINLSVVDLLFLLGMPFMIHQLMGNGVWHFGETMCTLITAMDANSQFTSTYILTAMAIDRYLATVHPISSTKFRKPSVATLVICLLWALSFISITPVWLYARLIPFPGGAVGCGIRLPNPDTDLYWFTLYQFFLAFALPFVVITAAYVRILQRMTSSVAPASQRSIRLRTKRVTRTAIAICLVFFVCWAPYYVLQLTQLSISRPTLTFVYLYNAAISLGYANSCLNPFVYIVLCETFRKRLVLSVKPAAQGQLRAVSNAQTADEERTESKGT
T2 sequence (Q99705 whole entry): as above

As for `COc1cc(NC(=O)c2ccc(-c3ccccc3)cc2)ccc1C(=O)NCCN(C)C` [Ex 2, Biphenyl-4-carboxylic acid[4-(2-dimethylamino-ethylcarbamoyl)-3-methoxy-phenyl]-amide], the half-maximal inhibitory concentration (IC50) at human MCH-1 receptor [1] turned out to be 1480 nM. In the case of `COc1cc(NC(=O)Nc2ccc(Oc3ccccc3)cc2)ccc1C(=O)NCCN(C)C` [Ex 8, N-(2-Dimethylamino-ethyl)-2-methoxy-4-[3-(4-phenoxy-phenyl)-ureido]-benzamide], the IC50 was determined as 380 nM at human MCH-1 receptor [1] and 2300 nM against human MCH-1 receptor [2]. In the same order, the values of `COc1cc(NC(=O)Nc2ccc(Oc3ccccc3)cc2)ccc1C(=O)NC1CCN(Cc2ccccc2)CC1` [Ex 16, N-(1-Benzyl-piperidin-4-yl)-2-methoxy-4-[3-(4-phenoxy-phenyl)-ureido]-benzamide] are 220 nM and 1800 nM. The matching figures for `COc1cc(NC(=O)Nc2ccc(Oc3ccccc3)cc2)ccc1C(=O)NCCCN1CCOCC1` [Ex 23, 2-Methoxy-N-(3-morpholin-4-yl-propyl)-4-[3-(4-phenoxy-phenyl)-ureido]-benzamide]: 210 nM and 770 nM. The matching figures for `CCN(CC)CCNC(=O)c1ccc(N(C)C(=O)Nc2ccc(Oc3ccccc3)cc2)cc1OC` [Ex 33, N-(2-Diethylamino-ethyl)-2-methoxy-4-[1-methyl-3-(4-phenoxy-phenyl)-ureido]-benzamide]: 48 nM and 290 nM. With `CCN(CC)CCNC(=O)c1ccc(NC(=O)Nc2ccc(OC(F)(F)F)cc2)cc1` [Ex 47, N-(2-Diethylamino-ethyl)-4-[3-(4-trifluoromethoxy-phenyl)-ureido]-benzamide], the IC50 worked out at 70 nM on human MCH-1 receptor [1] and 290 nM against human MCH-1 receptor [2]. In the same order, the values of `CCN(CC)CCNC(=O)c1ccc(NC(=O)Nc2ccc(OC(F)(F)F)cc2)cc1OC` [Ex 48, N-(2-Diethylamino-ethyl)-2-methoxy-4-[3-(4-trifluoromethoxy-phenyl)-ureido]-benzamide] are 96 nM and 190 nM.

Regarding `COc1cc(NC(=O)Nc2ccc(C(F)(F)F)cc2)ccc1C(=O)NCCN1CCOCC1` [Ex 67, 2-Methoxy-N-(2-morpholin-4-yl-ethyl)-4-[3-(4-trifluoromethyl-phenyl)-ureido]-benzamide], the 50% inhibitory concentration (IC50) was 27 nM at hMCHreceptor and 220 nM against human MCH-1 receptor [2].

For `COc1cc(NC(=O)Nc2cccc(Nc3ccccc3)c2)ccc1C(=O)NCCCN1CCCCC1` [Ex 89, 2-Methoxy-4-[3-(3-phenylamino-phenyl)-ureido]-N-(3-piperidin-1-yl-propyl)-benzamide], the 50% inhibitory concentration (IC50) on human MCH-1 receptor [1] turned out to be 12 nM; on human MCH-1 receptor [2] it was 22 nM.

For the compound `COc1cc(NC(=O)Nc2ccc(Oc3ccccc3)cc2)ccc1C(=O)NCCCN1CCCCC1` [Ex 95, 2-Methoxy-4-[3-(4-phenoxy-phenyl)-ureido]-N-(3-piperidin-1-yl-propyl)-benzamide], the IC50 on human MCH-1 receptor [1] is 44 nM; on human MCH-1 receptor [2] it was 240 nM. As to `COc1cc(NC(=O)Nc2cccc(Oc3ccccc3)c2)ccc1C(=O)NCCCN1CCOCC1` [Ex 121, 2-Methoxy-N-(3-morpholin-4-yl-propyl)-4-[3-(3-phenoxy-phenyl)-ureido]-benzamide], the IC50 at human MCH-1 receptor [1] is 74 nM.

As for `CCCCN(CCCC)CCCNC(=O)c1ccc(N(C)C(=O)Nc2ccc(Oc3ccccc3)cc2)cc1OC` [Ex 134, N-(3-Dibutylamino-propyl)-2-methoxy-4-[1-methyl-3-(4-phenoxy-phenyl)-ureido]-benzamide], the IC50 on human MCH-1 receptor [1] is 69 nM; against human MCH-1 receptor [2], 670 nM. The matching figures for `COc1cc(NC(=O)Nc2ccc(Oc3ccc(F)cc3)cc2)ccc1C(=O)NCCCN1CCOCC1` [Ex 135, 4-{3-[4-(4-Fluoro-phenoxy)-phenyl]-ureido}-2-methoxy-N-(3-morpholin-4-yl-propyl)-benzamide]: 450 nM and 1600 nM. On to `COc1cc(NC(=O)Nc2ccc(Oc3ccccn3)cc2)ccc1C(=O)NCCCN1CCOCC1` [Ex 136, 2-Methoxy-N-(3-morpholin-4-yl-propyl)-4-(3-[4-(pyridin-2-yloxy)-phenyl]-ureido)-benzamide], for which the IC50 at human MCH-1 receptor [1] is 4450 nM. Compound `COc1cc(NC(=O)Nc2ccc3c(c2)CCC3)ccc1C(=O)NC1CCN(Cc2ccccc2)CC1` [Ex 137, N-(1-Benzyl-piperidin-4-yl)-4-(3-indan-5-yl-ureido)-2-methoxy-benzamide] showed an IC50 at human MCH-1 receptor [1] of 300 nM. Still for that read-out and setting: the same measure for `COc1cc(NC(=O)Nc2ccc(Nc3ccc(C(F)(F)F)cc3)cc2)ccc1C(=O)NCCCN1CCOCC1` [Ex 139, 2-Methoxy-N-(3-morpholin-4-yl-propyl)-4-{3-[4-(4-trifluoromethyl-phenylamino)-phenyl]-ureido}-benzamide]: 1410 nM. As for `COc1cc(NC(=O)Nc2ccc(Oc3ccccc3)cc2)c(F)cc1C(=O)NCCCN1CCCCC1` [Ex 186, 5-Fluoro-2-methoxy-4-[3-(4-phenoxy-phenyl)-ureido]-N-(3-piperidin-1-yl-propyl)-benzamide], at human MCH-1 receptor [1], the IC50 worked out at 1000 nM.
